{"source": "ChEMBL document CHEMBL4507298", "about": "(2021)", "key": {"[1]": {"molecular_target": "Motilin receptor (Homo sapiens) (UniProt O43193)", "sequence (O43193 whole entry)": "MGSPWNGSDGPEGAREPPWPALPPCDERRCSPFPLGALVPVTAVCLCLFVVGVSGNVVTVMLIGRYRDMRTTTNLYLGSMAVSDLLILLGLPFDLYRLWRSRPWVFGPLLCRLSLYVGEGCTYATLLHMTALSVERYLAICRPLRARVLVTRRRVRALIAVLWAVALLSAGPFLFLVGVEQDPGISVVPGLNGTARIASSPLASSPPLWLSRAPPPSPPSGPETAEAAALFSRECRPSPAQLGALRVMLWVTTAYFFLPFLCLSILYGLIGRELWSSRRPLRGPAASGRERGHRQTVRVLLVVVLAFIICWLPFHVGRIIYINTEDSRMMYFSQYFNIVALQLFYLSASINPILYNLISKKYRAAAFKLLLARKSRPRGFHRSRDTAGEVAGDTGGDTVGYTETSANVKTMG", "test": "Motilin (h) CEREP ligand profiling", "details": "Compound concentration 10.0 uM; call rule not given here"}, "[2]": {"molecular_target": "ALK tyrosine kinase receptor (Homo sapiens) (UniProt Q9UM73)", "sequence (Q9UM73 19-1620 limits assumed)": "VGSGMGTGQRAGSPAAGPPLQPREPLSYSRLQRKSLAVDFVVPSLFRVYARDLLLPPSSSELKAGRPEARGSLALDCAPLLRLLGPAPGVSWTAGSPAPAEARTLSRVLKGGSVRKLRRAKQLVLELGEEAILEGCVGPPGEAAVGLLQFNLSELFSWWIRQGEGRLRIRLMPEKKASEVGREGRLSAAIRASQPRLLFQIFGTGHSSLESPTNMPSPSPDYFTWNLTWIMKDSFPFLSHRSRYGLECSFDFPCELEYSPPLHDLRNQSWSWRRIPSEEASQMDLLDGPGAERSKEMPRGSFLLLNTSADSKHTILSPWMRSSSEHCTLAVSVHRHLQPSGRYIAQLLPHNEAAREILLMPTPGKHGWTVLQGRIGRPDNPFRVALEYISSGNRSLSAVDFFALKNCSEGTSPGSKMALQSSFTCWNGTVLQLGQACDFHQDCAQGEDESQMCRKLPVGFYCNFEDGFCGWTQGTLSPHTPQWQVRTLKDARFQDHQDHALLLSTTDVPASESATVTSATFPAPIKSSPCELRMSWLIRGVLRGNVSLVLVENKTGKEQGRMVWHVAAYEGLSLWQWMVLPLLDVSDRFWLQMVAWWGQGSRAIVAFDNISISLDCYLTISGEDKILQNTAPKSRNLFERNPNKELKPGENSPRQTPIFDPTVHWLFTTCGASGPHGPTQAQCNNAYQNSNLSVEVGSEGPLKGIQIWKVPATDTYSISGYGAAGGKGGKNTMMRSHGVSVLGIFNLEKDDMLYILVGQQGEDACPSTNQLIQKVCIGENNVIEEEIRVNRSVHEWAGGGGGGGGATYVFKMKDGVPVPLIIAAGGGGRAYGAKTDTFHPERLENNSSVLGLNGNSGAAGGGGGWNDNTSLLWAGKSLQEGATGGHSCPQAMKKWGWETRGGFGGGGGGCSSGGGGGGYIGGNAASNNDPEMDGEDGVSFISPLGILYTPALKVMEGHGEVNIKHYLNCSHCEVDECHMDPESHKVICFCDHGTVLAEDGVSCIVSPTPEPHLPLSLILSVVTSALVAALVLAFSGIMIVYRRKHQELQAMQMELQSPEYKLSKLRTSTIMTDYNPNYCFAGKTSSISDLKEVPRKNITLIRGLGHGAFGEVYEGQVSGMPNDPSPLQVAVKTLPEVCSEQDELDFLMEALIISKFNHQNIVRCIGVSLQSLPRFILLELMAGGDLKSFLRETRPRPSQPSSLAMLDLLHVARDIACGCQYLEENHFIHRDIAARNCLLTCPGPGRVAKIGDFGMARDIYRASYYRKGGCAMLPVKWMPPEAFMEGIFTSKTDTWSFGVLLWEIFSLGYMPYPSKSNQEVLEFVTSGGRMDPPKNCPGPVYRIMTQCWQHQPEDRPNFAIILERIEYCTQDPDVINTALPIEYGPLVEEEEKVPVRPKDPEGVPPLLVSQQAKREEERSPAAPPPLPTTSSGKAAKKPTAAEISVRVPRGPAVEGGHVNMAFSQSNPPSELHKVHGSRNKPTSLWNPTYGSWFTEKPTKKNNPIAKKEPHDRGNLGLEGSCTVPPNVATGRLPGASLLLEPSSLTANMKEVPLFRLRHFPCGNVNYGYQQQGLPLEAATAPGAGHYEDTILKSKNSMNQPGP", "details": "Compound concentration 1000.0 nM"}, "[3]": {"molecular_target": "Dual specificity mitogen-activated protein kinase kinase 4 (Homo sapiens) (UniProt P45985)", "details": "Compound concentration 1000.0 nM"}, "[4]": {"molecular_target": "Serine/threonine-protein kinase 38 (Homo sapiens) (UniProt Q15208)", "details": "Compound concentration 1000.0 nM"}, "[5]": {"molecular_target": "Adrenergic receptor alpha-1 (Homo sapiens) (UniProt P35348+P25100+P35368)", "test": "alpha 1 (non- selective) CEREP ligand profiling", "format": "protein assay", "details": "Compound concentration 10.0 uM"}, "[6]": {"molecular_target": "Activin receptor type-1-like (Homo sapiens) (UniProt P37023)", "details": "Compound concentration 1000.0 nM"}, "[7]": {"molecular_target": "Serine/threonine-protein kinase pim-1 (Homo sapiens) (UniProt P11309)", "details": "Compound concentration 1000.0 nM"}, "[8]": {"molecular_target": "Serine/threonine-protein kinase 16 (Homo sapiens) (UniProt O75716)", "details": "Compound concentration 1000.0 nM"}, "[9]": {"molecular_target": "Mitogen-activated protein kinase 1 (Homo sapiens) (UniProt P28482)", "details": "Compound concentration 1000.0 nM"}, "[10]": {"molecular_target": "Tyrosine-protein kinase Mer (Homo sapiens) (UniProt Q12866)", "details": "Compound concentration 1000.0 nM"}, "[11]": {"molecular_target": "Proto-oncogene tyrosine-protein kinase ROS (Homo sapiens) (UniProt P08922)", "details": "Compound concentration 1000.0 nM"}, "[12]": {"molecular_target": "Serine/threonine-protein kinase Nek11 (Homo sapiens) (UniProt Q8NG66)", "sequence (Q8NG66 whole entry)": "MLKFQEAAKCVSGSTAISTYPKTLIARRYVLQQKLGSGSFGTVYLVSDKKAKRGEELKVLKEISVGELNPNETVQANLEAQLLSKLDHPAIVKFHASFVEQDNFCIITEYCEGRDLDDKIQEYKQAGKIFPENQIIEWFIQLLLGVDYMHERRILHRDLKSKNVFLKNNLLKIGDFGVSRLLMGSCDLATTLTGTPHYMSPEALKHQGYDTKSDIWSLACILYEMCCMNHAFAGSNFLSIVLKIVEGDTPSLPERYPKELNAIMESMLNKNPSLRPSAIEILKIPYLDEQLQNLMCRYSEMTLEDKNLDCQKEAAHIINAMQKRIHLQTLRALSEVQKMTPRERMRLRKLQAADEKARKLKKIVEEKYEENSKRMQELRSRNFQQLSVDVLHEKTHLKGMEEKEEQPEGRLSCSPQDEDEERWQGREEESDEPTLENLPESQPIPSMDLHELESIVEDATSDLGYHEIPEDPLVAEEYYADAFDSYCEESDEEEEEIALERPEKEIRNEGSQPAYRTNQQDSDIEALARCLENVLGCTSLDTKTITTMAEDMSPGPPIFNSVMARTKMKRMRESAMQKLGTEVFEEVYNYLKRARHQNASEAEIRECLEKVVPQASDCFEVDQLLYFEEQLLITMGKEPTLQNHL", "details": "Compound concentration 1000.0 nM"}, "[13]": {"molecular_target": "Serine/threonine-protein kinase PAK 1 (Homo sapiens) (UniProt Q13153)", "details": "Compound concentration 1000.0 nM"}, "[14]": {"molecular_target": "Dual specificity testis-specific protein kinase 1 (Homo sapiens) (UniProt Q15569)", "details": "Compound concentration 1000.0 nM"}, "[15]": {"molecular_target": "Carbonic anhydrase 2 (Homo sapiens) (UniProt P00918)", "test": "Carbonic anhydrase II (h) CEREP ligand profiling", "details": "Compound concentration 10.0 uM"}, "[16]": {"molecular_target": "Mitogen-activated protein kinase 11 (Homo sapiens) (UniProt Q15759)", "details": "Compound concentration 1000.0 nM"}, "[17]": {"molecular_target": "Cysteinyl leukotriene receptor 1 (Homo sapiens) (UniProt Q9Y271)", "test": "LTD4 (h) (CysLT1) CEREP ligand profiling", "details": "Compound concentration 10.0 uM"}, "[18]": {"molecular_target": "Substance-P receptor (Homo sapiens) (UniProt P25103)", "test": "NK1 (h) CEREP ligand profiling", "details": "Compound concentration 10.0 uM"}, "[19]": {"molecular_target": "Na+ channel (site 2), sodium channel alpha subunit (Homo sapiens, UniProt P35498+P35499+Q01118+Q14524+Q15858+Q99250+Q9NY46+Q9UI33+Q9UQD0+Q9Y5Y9)", "test": "Na+ channel (site 2) CEREP ligand profiling", "format": "protein assay", "details": "compound concentration 10 uM"}, "[20]": {"molecular_target": "Acetylcholinesterase (Homo sapiens) (UniProt P22303)", "test": "Acetylcholinesterase (h) CEREP ligand profiling", "details": "Compound concentration 10.0 uM"}, "[21]": {"molecular_target": "Ribosomal protein S6 kinase alpha-6 (Homo sapiens) (UniProt Q9UK32)", "details": "Compound concentration 1000.0 nM"}, "[22]": {"molecular_target": "Serine/threonine-protein kinase 38-like (Homo sapiens) (UniProt Q9Y2H1)", "details": "Compound concentration 1000.0 nM"}, "[23]": {"molecular_target": "Ribosyldihydronicotinamide dehydrogenase [quinone] (Homo sapiens) (UniProt P16083)", "sequence (P16083 whole entry)": "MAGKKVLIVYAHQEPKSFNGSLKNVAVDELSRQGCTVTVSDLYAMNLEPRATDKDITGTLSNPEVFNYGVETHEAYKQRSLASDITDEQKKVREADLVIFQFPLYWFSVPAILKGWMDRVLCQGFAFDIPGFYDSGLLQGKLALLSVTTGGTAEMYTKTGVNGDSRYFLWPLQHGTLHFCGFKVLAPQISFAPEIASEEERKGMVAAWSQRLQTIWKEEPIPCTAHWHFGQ", "test": "(§1) ML2 (MT3) CEREP ligand profiling", "details": "Compound concentration 10.0 uM"}, "[24]": {"molecular_target": "Ribosyldihydronicotinamide dehydrogenase [quinone] (Homo sapiens, UniProt P16083)", "sequence (P16083 whole entry)": "as above", "test": "as §1"}, "[25]": {"molecular_target": "Death-associated protein kinase 2 (Homo sapiens) (UniProt Q9UIK4)", "details": "Compound concentration 1000.0 nM"}, "[26]": {"molecular_target": "Serine/threonine-protein kinase D2 (Homo sapiens) (UniProt Q9BZL6)", "sequence (Q9BZL6 whole entry)": "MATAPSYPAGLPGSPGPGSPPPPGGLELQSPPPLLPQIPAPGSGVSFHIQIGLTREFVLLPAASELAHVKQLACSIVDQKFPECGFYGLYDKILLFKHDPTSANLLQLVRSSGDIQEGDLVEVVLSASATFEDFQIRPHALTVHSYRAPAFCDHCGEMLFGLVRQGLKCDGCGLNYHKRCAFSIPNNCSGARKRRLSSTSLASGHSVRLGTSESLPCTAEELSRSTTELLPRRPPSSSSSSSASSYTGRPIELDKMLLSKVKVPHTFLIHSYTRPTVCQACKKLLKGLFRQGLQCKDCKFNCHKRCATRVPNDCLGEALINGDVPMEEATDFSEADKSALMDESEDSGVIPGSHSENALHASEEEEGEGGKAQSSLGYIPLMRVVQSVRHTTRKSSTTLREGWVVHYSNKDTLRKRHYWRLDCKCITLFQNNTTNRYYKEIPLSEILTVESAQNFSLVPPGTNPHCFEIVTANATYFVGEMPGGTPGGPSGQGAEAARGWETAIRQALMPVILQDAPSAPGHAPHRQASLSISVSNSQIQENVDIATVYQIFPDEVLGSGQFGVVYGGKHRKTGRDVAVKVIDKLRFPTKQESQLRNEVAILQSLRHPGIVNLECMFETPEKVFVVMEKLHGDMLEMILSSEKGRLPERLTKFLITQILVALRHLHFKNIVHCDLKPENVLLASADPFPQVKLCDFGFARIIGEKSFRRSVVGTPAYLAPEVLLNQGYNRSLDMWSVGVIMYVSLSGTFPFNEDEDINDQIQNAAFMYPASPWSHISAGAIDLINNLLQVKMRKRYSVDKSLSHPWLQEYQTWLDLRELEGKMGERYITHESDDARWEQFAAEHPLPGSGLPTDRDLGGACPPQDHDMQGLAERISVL", "details": "Compound concentration 1000.0 nM"}, "[27]": {"molecular_target": "T1, Alpha-2A adrenergic receptor (Homo sapiens) (UniProt P08913)", "T1 sequence (whole entry)": "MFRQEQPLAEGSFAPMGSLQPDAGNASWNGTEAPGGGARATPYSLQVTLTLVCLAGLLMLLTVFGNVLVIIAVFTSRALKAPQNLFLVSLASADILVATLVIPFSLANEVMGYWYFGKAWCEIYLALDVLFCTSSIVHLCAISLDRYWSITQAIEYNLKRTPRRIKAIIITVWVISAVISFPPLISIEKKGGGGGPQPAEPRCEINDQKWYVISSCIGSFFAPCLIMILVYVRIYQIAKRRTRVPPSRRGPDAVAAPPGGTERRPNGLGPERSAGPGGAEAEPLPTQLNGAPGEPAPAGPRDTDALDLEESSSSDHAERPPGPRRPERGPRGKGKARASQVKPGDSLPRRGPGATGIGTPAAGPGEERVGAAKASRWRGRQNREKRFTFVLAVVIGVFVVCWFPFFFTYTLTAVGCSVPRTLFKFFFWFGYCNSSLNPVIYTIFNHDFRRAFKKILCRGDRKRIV", "test": "alpha 2A (h) CEREP ligand profiling", "details": "Compound concentration 10.0 uM"}, "[28]": {"molecular_target": "Ephrin type-A receptor 1 (Homo sapiens) (UniProt P21709)", "details": "Compound concentration 1000.0 nM"}, "[29]": {"molecular_target": "Mitogen-activated protein kinase kinase kinase 2 (Homo sapiens) (UniProt Q9Y2U5)", "details": "Compound concentration 1000.0 nM"}, "[30]": {"molecular_target": "Ephrin type-A receptor 3 (Homo sapiens) (UniProt P29320)", "details": "Compound concentration 1000.0 nM"}, "[31]": {"test_system": "Tyrosine-protein kinase ABL1 (Homo sapiens), P00519 [H396P]", "details": "Compound concentration 1000.0 nM"}, "[32]": {"molecular_target": "Tyrosine-protein kinase JAK1 (Homo sapiens) (UniProt P23458)", "sequence (P23458 whole entry)": "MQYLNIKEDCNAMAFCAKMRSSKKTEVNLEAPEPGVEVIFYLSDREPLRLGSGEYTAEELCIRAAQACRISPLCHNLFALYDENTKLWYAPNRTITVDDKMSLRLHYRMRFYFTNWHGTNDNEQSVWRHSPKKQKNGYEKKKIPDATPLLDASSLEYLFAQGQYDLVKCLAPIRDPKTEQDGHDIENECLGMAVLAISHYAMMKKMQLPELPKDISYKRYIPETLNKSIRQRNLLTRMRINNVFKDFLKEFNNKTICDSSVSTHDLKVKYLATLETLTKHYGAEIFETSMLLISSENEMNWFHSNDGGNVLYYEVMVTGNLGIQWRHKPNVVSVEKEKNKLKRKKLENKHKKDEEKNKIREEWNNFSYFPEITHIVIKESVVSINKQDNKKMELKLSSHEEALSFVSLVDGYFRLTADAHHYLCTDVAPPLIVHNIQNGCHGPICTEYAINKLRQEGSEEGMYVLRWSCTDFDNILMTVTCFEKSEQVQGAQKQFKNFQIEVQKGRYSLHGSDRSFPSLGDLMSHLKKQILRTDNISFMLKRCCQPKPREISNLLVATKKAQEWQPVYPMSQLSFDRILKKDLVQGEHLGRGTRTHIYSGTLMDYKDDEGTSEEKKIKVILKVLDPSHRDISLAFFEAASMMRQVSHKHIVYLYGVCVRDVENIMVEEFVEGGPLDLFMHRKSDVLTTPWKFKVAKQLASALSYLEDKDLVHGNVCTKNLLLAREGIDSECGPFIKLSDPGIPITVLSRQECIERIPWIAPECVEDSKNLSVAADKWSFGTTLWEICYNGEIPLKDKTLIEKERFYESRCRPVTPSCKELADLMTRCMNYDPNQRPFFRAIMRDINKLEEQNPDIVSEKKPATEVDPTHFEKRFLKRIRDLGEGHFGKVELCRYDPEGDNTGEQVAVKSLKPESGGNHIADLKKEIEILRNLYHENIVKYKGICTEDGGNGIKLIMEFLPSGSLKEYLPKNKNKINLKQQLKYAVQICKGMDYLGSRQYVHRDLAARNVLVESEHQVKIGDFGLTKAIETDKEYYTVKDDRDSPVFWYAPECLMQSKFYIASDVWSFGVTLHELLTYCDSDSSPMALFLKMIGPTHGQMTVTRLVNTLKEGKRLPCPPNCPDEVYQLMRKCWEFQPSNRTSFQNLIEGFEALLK", "details": "Compound concentration 1000.0 nM"}, "[33]": {"molecular_target": "Serine/threonine-protein kinase LATS2 (Homo sapiens) (UniProt Q9NRM7)", "details": "Compound concentration 1000.0 nM"}, "[34]": {"molecular_target": "SRSF protein kinase 2 (Homo sapiens) (UniProt P78362)", "details": "Compound concentration 1000.0 nM"}, "[35]": {"molecular_target": "Serine/threonine-protein kinase Chk1 (Homo sapiens) (UniProt O14757)", "details": "Compound concentration 1000.0 nM"}, "[36]": {"test_system": "Fibroblast growth factor receptor 3 (Homo sapiens), P22607 [G697C]", "details": "Compound concentration 1000.0 nM"}, "[37]": {"molecular_target": "Tyrosine-protein kinase Blk (Homo sapiens) (UniProt P51451)", "details": "Compound concentration 1000.0 nM"}, "[38]": {"molecular_target": "Neuropeptide Y receptor type 1 (Homo sapiens) (UniProt P25929)", "test": "Y1 (h) CEREP ligand profiling", "details": "Compound concentration 10.0 uM"}, "[39]": {"molecular_target": "Serine/threonine-protein kinase tousled-like 1 (Homo sapiens) (UniProt Q9UKI8)", "details": "Compound concentration 1000.0 nM"}}}
{"compound": "COc1ccc2cc(OCC3(C(=O)O)CN(C(=O)c4ccc(F)cc4)C3)ccc2c1", "note": "[PF-04418948]", "values": [{"measurement": "inhibition", "setting": "[1]", "value": -5, "unit": "%"}, {"measurement": "residual activity", "setting": "[2]", "value": 79, "unit": "%"}, {"measurement": "residual activity", "setting": "[3]", "value": 90, "unit": "%"}, {"measurement": "residual activity", "setting": "[4]", "value": 98, "unit": "%"}, {"measurement": "inhibition", "setting": "[5]", "value": 9, "unit": "%"}, {"measurement": "residual activity", "setting": "[6]", "value": 93, "unit": "%"}, {"measurement": "residual activity", "setting": "[7]", "value": 96, "unit": "%"}, {"measurement": "residual activity", "setting": "[8]", "value": 88, "unit": "%"}, {"measurement": "residual activity", "setting": "[9]", "value": 97, "unit": "%"}, {"measurement": "residual activity", "setting": "[10]", "value": 80, "unit": "%"}, {"measurement": "residual activity", "setting": "[11]", "value": 81, "unit": "%"}, {"measurement": "residual activity", "setting": "[12]", "value": 93, "unit": "%"}, {"measurement": "residual activity", "setting": "[13]", "value": 87, "unit": "%"}, {"measurement": "residual activity", "setting": "[14]", "value": 98, "unit": "%"}, {"measurement": "inhibition", "setting": "[15]", "value": 9, "unit": "%"}, {"measurement": "residual activity", "setting": "[16]", "value": 78, "unit": "%"}, {"measurement": "inhibition", "setting": "[17]", "value": 2, "unit": "%"}, {"measurement": "inhibition", "setting": "[18]", "value": 3, "unit": "%"}, {"measurement": "inhibition at 10 µM", "setting": "[19]", "value": "9% (not active)"}, {"measurement": "inhibition", "setting": "[20]", "value": 45, "unit": "%"}, {"measurement": "residual activity", "setting": "[21]", "value": 77, "unit": "%"}, {"measurement": "residual activity", "setting": "[22]", "value": 86, "unit": "%"}, {"measurement": "inhibition", "setting": "[23]", "value": 93, "unit": "%"}, {"measurement": "IC50", "setting": "[24]", "value": 530, "unit": "nM"}, {"measurement": "Ki", "setting": "[24]", "value": 520, "unit": "nM"}, {"measurement": "residual activity", "setting": "[25]", "value": 98, "unit": "%"}, {"measurement": "residual activity", "setting": "[26]", "value": 93, "unit": "%"}, {"measurement": "inhibition", "setting": "[27]", "value": 26, "unit": "%"}, {"measurement": "residual activity", "setting": "[28]", "value": 83, "unit": "%"}, {"measurement": "residual activity", "setting": "[29]", "value": 96, "unit": "%"}, {"measurement": "residual activity", "setting": "[30]", "value": 92, "unit": "%"}, {"measurement": "residual activity", "setting": "[31]", "value": 74, "unit": "%"}, {"measurement": "residual activity", "setting": "[32]", "value": 96, "unit": "%"}, {"measurement": "residual activity", "setting": "[33]", "value": 90, "unit": "%"}, {"measurement": "residual activity", "setting": "[34]", "value": 84, "unit": "%"}, {"measurement": "residual activity", "setting": "[35]", "value": 87, "unit": "%"}, {"measurement": "residual activity", "setting": "[36]", "value": 88, "unit": "%"}, {"measurement": "residual activity", "setting": "[37]", "value": 93, "unit": "%"}, {"measurement": "inhibition", "setting": "[38]", "value": 1, "unit": "%"}, {"measurement": "residual activity", "setting": "[39]", "value": 87, "unit": "%"}]}
